# Test results reported in article PMC9671377, “Label-free affinity screening, design and synthesis of inhibitors targeting the Mycobacterium tuberculosis L-alanine dehydrogenase” (PLOS ONE, 2022).
# Where “and” joins values, the source holds several entries; their conditions need not be identical. Equal values may be shown once. Read-outs that look alike come from different tables or passages of the source.
# Key:
# [1] = system: Mtb aldehyde dehydrogenase (Rv0223c, AldDH); format: biochemical, Mycobacterium tuberculosis; settings: 1 mM inhibitor, 1 mM NAD, 10 mM propionaldehyde
# [2] = molecular target: T1, Mtb L-alanine dehydrogenase (AlaDH, Rv2780) (Mycobacterium tuberculosis, UniProt P9WQB1); format: binding; settings: for Integrated band volume / Ratio against N6-methyl ado / Eluted protein amount relative to N6-methyl ado / Eluted AlaDH compared to N6-methyl ado: SDS gel densitometry; for Integrated band volume / Ratio against N6-methyl ado: Fig 3a
# T1 sequence (P9WQB1 whole entry, looked up): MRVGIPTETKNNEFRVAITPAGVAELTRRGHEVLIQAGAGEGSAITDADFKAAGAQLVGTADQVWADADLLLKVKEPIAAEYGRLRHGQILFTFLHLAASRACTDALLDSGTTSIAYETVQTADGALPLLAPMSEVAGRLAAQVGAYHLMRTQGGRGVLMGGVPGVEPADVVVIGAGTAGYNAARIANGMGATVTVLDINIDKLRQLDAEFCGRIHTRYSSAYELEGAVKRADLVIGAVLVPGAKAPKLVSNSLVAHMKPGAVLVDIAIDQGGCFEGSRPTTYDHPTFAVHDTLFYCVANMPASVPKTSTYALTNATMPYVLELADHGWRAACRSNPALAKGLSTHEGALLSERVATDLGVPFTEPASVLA
# [3] = molecular target: T2, human malate DH 2 (Homo sapiens, UniProt P40926); assay: Activity assay against human malate DH 2; format: biochemical
# T2 sequence (P40926 25-338): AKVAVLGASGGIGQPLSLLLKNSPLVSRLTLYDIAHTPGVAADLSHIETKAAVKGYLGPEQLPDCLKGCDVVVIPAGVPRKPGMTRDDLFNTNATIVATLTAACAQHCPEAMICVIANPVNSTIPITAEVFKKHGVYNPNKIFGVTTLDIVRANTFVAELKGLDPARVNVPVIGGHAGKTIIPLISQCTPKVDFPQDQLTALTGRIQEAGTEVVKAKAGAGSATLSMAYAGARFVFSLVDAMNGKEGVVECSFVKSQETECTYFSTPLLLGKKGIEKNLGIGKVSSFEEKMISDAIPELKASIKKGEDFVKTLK
# [4] = system: Mtb in murine primary bone marrow-derived macrophages (BMDMs); format: cell-based, Mycobacterium tuberculosis H37Rv; settings: 500 μM, 3 days
# [5] = molecular target: Mycobacterium tuberculosis L-alanine dehydrogenase (Mycobacterium tuberculosis, UniProt P9WQB1); assay: biochemical; format: biochemical; settings: for Ki: competitive inhibition mode vs NAD, value (S.D.) in table
# Mycobacterium tuberculosis L-alanine dehydrogenase, sequence (P9WQB1 whole entry, looked up): as the sequence (P9WQB1 whole entry, looked up) above
# [6] = molecular target: Mtb L-alanine dehydrogenase (AlaDH) (Mycobacterium tuberculosis, UniProt P9WQB1); format: biochemical
# Mtb L-alanine dehydrogenase (AlaDH), sequence (P9WQB1 whole entry, looked up): as the sequence (P9WQB1 whole entry, looked up) above
# [7] = system: Mycobacterium tuberculosis H37Rv cells; assay: Minimum inhibitory concentration assay (microfluidic agarose channel chip); format: cell-based
# [8] = molecular target: T1, Mtb L-alanine dehydrogenase (AlaDH, Rv2780); settings: cited from earlier work
# [9] = compound at 1 mM, SDS-PAGE of eluate
smiles,measurement,setting,value
"CNc1ncnc2c1ncn2[C@@H]1O[C@H](CO)[C@@H](O)[C@H]1O [D30, N6-methyl adenosine]",Inhibition of AldDH activity,[1],none
same,Integrated band volume,[2],"41,418"
same,Ratio against N6-methyl ado,[2],1
same,Elution of AlaDH from F3GA dye resin (displacement of the dye) in DLAC,[2]; [9],displaced the F3GA dye from AlaDH
same,Inhibition of human malate DH 2 activity,[3],no noticeable inhibition
same,Intracellular growth of Mtb in BMDMs,[4],significantly decreased
same,Ki,[5],860 µM and 861 µM
same,Reduction of initial velocity (vi) of the AlaDH reaction,"[6]; 1 mM inhibitor, 1 mM NAD, 17 mM L-alanine",33%
same,Initial velocity (vi) of the AlaDH reaction with compound,"[6]; no inhibition vi 1.842x10^-3, 1 mM inhibitor",1.231x10^-3 [NADH]OD340/min
same,MIC,[7],~10 µg/mL
"Cc1nc(N)c2ncn([C@@H]3O[C@H](CO)[C@@H](O)[C@H]3O)c2n1 [D28, C2-methyl adenosine]",Elution of AlaDH from F3GA dye resin (displacement of the dye) in DLAC,[2],did not show displacement
same,Initial velocity (vi) of the AlaDH reaction with compound,[6],1.769 x10^-3 [NADH]OD340/min
same,Reduction of initial velocity (vi) of the AlaDH reaction,[6],4%
CC(=O)Nc1ncnc2c1ncn2[C@@H]1O[C@H](CO)[C@@H](O)[C@H]1O [N6-acetyl ado],Eluted protein amount relative to N6-methyl ado,[2],12%
same,Integrated band volume,[2],"5,015"
same,Ratio against N6-methyl ado,[2],0.12
same,Inhibitory effect on AlaDH activity,[5],did not reveal any inhibitory effect
CC(C)CNc1ncnc2c1ncn2[C@@H]1O[C@H](CO)[C@@H](O)[C@H]1O [N6-isobutyl adenosine],Inhibition of AldDH activity,[1],no inhibition
same,Integrated band volume,[2],"143,252"
same,Ratio against N6-methyl ado,[2],3.45
same,Eluted AlaDH compared to N6-methyl ado,[2]; listed as N6-isobutyl ado,3.45 fold and ~ 3.5 fold
same,Inhibition of human malate DH 2 activity,[3],no noticeable inhibition
same,Ki,[5],80 µM and 79 µM
same,vi of wild-type AlaDH after adding compound,"[6]; […], without compound vi 1.922 x10^-3",0.734 x10^-3 [NADH]OD340/min
CCNc1ncnc2c1ncn2[C@@H]1O[C@H](CO)[C@@H](O)[C@H]1O [N6-ethyl adenosine],melting point,,197.1 to 198.4 °C
same,Eluted AlaDH compared to N6-methyl ado,[2],2.12 fold
same,Integrated band volume,[2],"87,674"
same,Ratio against N6-methyl ado,[2],2.12
same,Ki,[5],520 µM and 521 µM
CCCNc1ncnc2c1ncn2[C@@H]1O[C@H](CO)[C@@H](O)[C@H]1O [N6-propyl adenosine],melting point,,162 to 165.4 °C
same,Eluted AlaDH compared to N6-methyl ado,[2],3.05 fold
same,Integrated band volume,[2],"126,378"
same,Ratio against N6-methyl ado,[2],3.05
same,Ki,[5],110 µM and 113 µM
NC(=O)C1=CN([C@@H]2O[C@H](COP(=O)(O)OP(=O)(O)OC[C@H]3O[C@@H](n4cnc5c(N)ncnc54)[C@H](O)[C@@H]3O)[C@@H](O)[C@H]2O)C=CC1 [NADH],Binding in DLAC assay (previous data),[8],bound strongly
CC(C)C(=O)Nc1ncnc2c1ncn2[C@@H]1O[C@H](CO)[C@@H](O)[C@H]1O [N6-isobutyoyl adenosine],Eluted protein amount relative to N6-methyl ado,[2],70%
same,Integrated band volume,[2],"29,087"
same,Ratio against N6-methyl ado,[2],0.70
same,Ki,[5],3710 µM
"Nc1ncnc2c1ncn2[C@@H]1O[C@H](COP(=O)(O)OP(=O)(O)OP(=O)(O)O)[C@@H](O)[C@H]1O [ATP, reference compound]",Elution of AlaDH from F3GA dye resin (displacement of the dye) in DLAC,[2]; [9],eluted the target AlaDH enzyme
same,Binding in DLAC assay (previous data),[8],bound strongly
